Test results from US11001820B2, “Delivery of therapeutic agents by a collagen binding protein” (THE BOARD OF TRUSTEES OF THE UNIVERSITY OF ARKANSAS, priority 2011, dated 2021).

How the values were obtained:
androgenic alopecia = settings: long-term (10 years) therapy; cited from earlier work
[1] = Circular dichroism thermal denaturation of collagenous peptides; type: physicochemical; settings: triple helix thermostability by [θ]225, 0.3° C./min, 1 mg/ml in water
Procedure: The triple helical conformation and the stability of the collagenous peptides were verified using CD spectroscopy (See FIGS. 3 and 4). CD spectra were recorded with a J-820 CD spectropolarimeter (JASCO Co., Hachioji, Japan) equipped with a Peltier thermo controller, using a 0.5-mm quartz cuvette and connected to a data station for signal averaging. All peptide samples were dissolved in water (1 mg/ml), and stored at 4° C. for 24 h. The spectra are reported in terms of ellipticity units per mole of peptide residues [θ]mrw. Thermostability of the triple helix was monitored by the [θ]225 values of each peptide with increasing temperature at the rate of 0.3° C./min.

mice = test: Chemotherapy-induced alopecia without depilation; type: in vivo
Procedure: While the depilated model of chemotherapy-induced alopecia provides a uniform model for comparison of drug effects, the depilation process is known to cause hair follicle injury, and may alter the response of the animals to the PTH-CBD administration. We therefore tested the effects of PTH-CBD in another model of chemotherapy-induced alopecia, where the animals were given 3 courses of cyclophosphamide therapy (50 mg/kg/wk), similar to the usual manner in which cancer patients might be treated. In this model, it takes much longer (4-6 months) for alopecia to develop.
In a second study, we compared the effects of PTH-CBD when given prophylactically, at the time of the first cycle of chemotherapy, vs. therapeutically, after the hair loss had developed. […] This is evident both visually and quantitatively in FIG. 17, using the same grey scale analysis used in our dose-response study.

C57/BL6J mice = test: Depilation alopecia (waxing); type: in vivo
Description: The agonist PTH-CBD appears to increase hair growth by increasing the number of anagen phase hair follicles. As such, there is no reason to believe that hair growth effects should be limited to the chemotherapy model. We therefore tested both PTH-CBD and antagonist compound, PTH(7-33)-CBD, after removing hair from C57/BL6J mice by waxing (FIG. 18). […] Thus, it appears that agonist therapy is acting to promote more rapid regrowth of hair by promoting more rapid transition to the anagen phase, while the antagonist inhibited hair regrowth by blocking this transition.

engrafted C3H/Hej mouse = test: Alopecia areata model; type: in vivo
Description: Alopecia Areata is a disease of patchy hair loss due to autoimmune destruction of the hair follicles. We tested the efficacy of PTH-CBD in promoting regrowth of hair in an animal model of alopecia areata, the engrafted C3H/Hej mouse. In this model, hair loss develops variably over the first 2 months of life. Shown in FIG. 19 is the results of a single dose of PTH-CBD (320 mcg/kg subcutaneous) administered into the engrafted site, the center of the back, where there was maximal hair loss. Compared to vehicle control animals, which continued to lose hair at this site, animals receiving PTH-CBD began to show regrowth of hair within the next 1-4 days.

C57BL/6J mice = test: Chemotherapy-induced alopecia (cyclophosphamide) in depilated mice; type: in vivo
Procedure: We compared efficacy of CBD linked PTH agonists and antagonists in chemotherapy-induced alopecia, utilizing an experimental design published by Peters, et al., for non-CBD linked PTH compounds. Peters, et al. (2001) J Invest Dermatol 117:173-178. C57BL/6J mice (Jackson Laboratories, Bar Harbor, Me.) were depilated to synchronize the hair follicles, and cyclophosphamide (CYP, 150 mg/kg) was administered on day 9 to maximize the chemotherapy-induced damage. The agonist (PTH-CBD) and the antagonist (PTH(7-33)-CBD) were administered 2 days prior to chemotherapy, and given the long-term retention of the compounds in the skin, we administered only a single dose to cover the timing of the multiple injections of PTH agonist and antagonist in the study by Peters, et. al. The administered dose of CBD-linked compounds (320 mcg/kg) is well tolerated in mice. Ponnapakkam et al. (2011) Calcif 88:511-520. […].
We followed these studies by comparing the effects of different doses of PTH-CBD in chemotherapy-induced alopecia. In these studies, we applied the injections more distally on the back and applied a gray-scale analysis to quantify the amount of hair growth. Injecting more distally in the back allows us to compare regrowth of hair after PTH-CBD treatment with less interference from the normal hair regrowth, which normally proceeds from head to tail in mice.

ovarectomized rat = test: Ovarectomized aged rats, single dose, sacrifice 6 months after therapy; type: in vivo; settings: 6 months after single dose 320 mcg/kg
Procedure: In this experiment, rats had their ovaries surgically removed at age 3 months. At age 9 months, rats were injected with either a single dose of PTH-CBD (320 mcg/kg) or vehicle control. Animals were sacrificed 6 months after therapy (age 15 months). […] Serum calcium was measured and there were no differences between groups (Vehicle: 13.5+/−1.1 vs. PTH-CBD: 14.3+/−1.1 mg/dl, NS). […] These findings indicate that a single injection of PTH-CBD can provide long-term suppression of endogenous PTH production, preventing the normal rise seen with age in the ovarectomized rat model, and thus may serve as a therapy for hyperparathyroidism.

[2] = Tissue distribution of 35S-labelled PTH-CBD by whole-body autoradiography; type: in vivo, mice; settings: subcutaneous injection, 1 hour and 12 hours
Procedure: Tissue distribution was assessed by administering ^35S-labelled PTH-CBD via subcutaneous injection, followed by whole mount frozen and whole-body autoradiography. PTH-CBD with a phosphorylation site between PTH(1-33) and the CBD was purified, activated and labeled with […] as described previously. Tamai et al. (2003) Infect Immun. 71:5371-5375. Approximately 10.8 mcg of ^35S-PTH-CBD (122 kcm/mcg) was injected subcutaneously in 7 week-old mice (32-35 g). Mice were sacrificed at 1 hour or 12 hours post-injection, and then frozen in dry ice-acetone. Frozen sections ([…]) were prepared with an autocryotome, dried at −20° C., and exposed to an image plate for 4 weeks. There appeared to be an initial distribution of ^35S-PTH-CBD to a broad area of skin around the site of injection, followed by a rapid redistribution to the skin of the entire animal, as well as to several other tissues (i.e. bone, intestine, bladder) (FIG. 11).

CC(C)(C)NC(=O)[C@H]1CC[C@H]2[C@@H]3CC[C@H]4NC(=O)C=C[C@]4(C)[C@H]3CC[C@]12C [Finasteride]
response rates (androgenic alopecia): around 50%

(POG)4POA(POG)5
Melting temperatures (Tm) [1]: 29 °C

(POG)4POA(POG)5C-PROXYL
Melting temperatures (Tm) [1]: 30 °C

PROXYL-(POG)3POA(POG)6
Melting temperatures (Tm) [1]: 28 °C

PROXYL-(POG)4POA(POG)5
Melting temperatures (Tm) [1]: 29 °C

PROXYL-(POG)5POA(POG)4
Melting temperatures (Tm) [1]: 28 °C

PROXYL-(POG)6POA(POG)3
Melting temperatures (Tm) [1]: 27 °C

PTH-CBD: first 33 amino acids of PTH linked directly to the collagen binding domain (SEQ ID NO: 1)
effect on hair, prophylactic vs. therapeutic dosing (mice; grey scale analysis): effective in both instances | hair loss (mice; single dose 320 mcg/kg subcutaneous prior to first of 3 cyclophosphamide courses): did not develop hair loss | anagen eruption (C57/BL6J mice; after waxing, vehicle day 9): 7 days | regrowth of hair (C57/BL6J mice; end of study (day 18)): more complete regrowth of hair | duration of response (engrafted C3H/Hej mouse; single dose 320 mcg/kg): sustained during the 2 month course | time to regrowth of hair (engrafted C3H/Hej mouse; single dose 320 mcg/kg subcutaneous into engrafted site): 1 to 4 days | hair regrowth, gray-scale analysis (C57BL/6J mice; 100, 320, 1000 mcg/kg): dose-dependent effect | hair follicle histology (C57BL/6J mice; H&E, day 36, 320 mcg/kg): deeper rooting and reduced melanocyte clumping | excess hair length or growth (C57BL/6J mice; body, ears and tail): no evidence of excess hair length | Counts of anagen VI hair follicles per high-powered field (C57BL/6J mice; day 36, 320 mcg/kg): higher number of hair follicles | adverse effects (C57BL/6J mice; mouse, in vivo): no evidence of adverse effects | serum calcium (C57BL/6J mice; mouse, in vivo): no effect | hair growth (photodocumentation) (C57BL/6J mice; single dose 320 mcg/kg, 2 days prior to CYP, day 36): far more effective at stimulating hair growth than was the antagonist | Human intact PTH levels (serum levels of PTH-CBD) (ovarectomized rat): undetectable | Rat intact PTH levels (endogenous PTH production) (ovarectomized rat): suppressed the normal increase in endogenous PTH levels | serum calcium (ovarectomized rat; NS vs vehicle): 14.3 ± 1.1 mg/dL | tissue distribution [2]: distribution and retention to skin

^11PROXYL-(POG)3PCG(POG)4
Melting temperatures (Tm) [1]: 28 °C
